Test [1] relates to Plasmodium falciparum. Put plainly: Antimalarial activity against Plasmodium falciparum Dd2 by HRP2 assay. In kind it is functional, organism-based.
Another test has as its system Plasmodium berghei. Put plainly: Antimalarial activity against Plasmodium berghei infected in human Huh7 cells after 1 hr by luciferase reporter gene assay. In kind it is functional, organism-based. The note with it: Huh-7, 1 h.
Test [2] deals with Plasmodium falciparum. Put plainly: Antimalarial activity against erythrocytic stage of Plasmodium falciparum by HRP2 assay. It counts as functional, organism-based.
In test [3] the test system is Plasmodium falciparum. Put plainly: Antimalarial activity against chloroquine-sensitive Plasmodium falciparum 3D7 by HRP2 assay. It counts as functional, organism-based.
The subject of another test is Human coronavirus 229E. Put plainly: Antiviral activity against Human coronavirus 229E. In kind it is functional, organism-based.
In the next test the test system is Coxsackievirus B4. Put plainly: Antiviral activity against Coxsackievirus B4. In kind it is functional, organism-based. Conditions: Enterovirus B.
For test [4], the system named is Mammalian orthoreovirus 1. Put plainly: Antiviral activity against Reovirus-1. In kind it is functional, organism-based.
In the next test the test system is Sindbis virus. Put plainly: Antiviral activity against Sindbis virus. In kind it is functional, organism-based.
Another test has as its system Punta Toro virus. Put plainly: Antiviral activity against Punta Toro virus. In kind it is functional, organism-based.
For test [5], the system named is Staphylococcus aureus. Put plainly: Anti-biofilm activity against Staphylococcus aureus 3202 after 24 hrs in aerobic condition by broth microdilution assay. It counts as functional. For orientation: Dilution methods test growth across graded concentrations, often in twofold steps.
The subject of test [6] is Staphylococcus aureus. Put plainly: Anti-biofilm activity against Staphylococcus aureus 630 after 24 hrs in aerobic condition by broth microdilution assay. In kind it is functional.
Test [7] relates to Staphylococcus aureus. Put plainly: Antimicrobial activity against Staphylococcus aureus. In kind it is functional.
The subject of another test is Pseudomonas aeruginosa. Put plainly: Antimicrobial activity against Pseudomonas aeruginosa. In kind it is functional.
In test [8] the test system is Escherichia coli. Put plainly: Antimicrobial activity against Escherichia coli. It counts as functional.
Test [9] concerns Escherichia coli. Put plainly: Anti-biofilm activity against Escherichia coli. It counts as functional.

pEC50, pIC50: −log10 of the molar value. In brackets after ≈: the same amount, converted by molar mass.

`COc1cc(NC(C)CCCNC(=O)/C=C/C(=O)Nc2ccc(C(F)(F)F)cc2)c2ncccc2c1` (centres undefined): the pIC50 (usually −log10 of the IC50, conventionally taken in molar units) in the test on Plasmodium falciparum [1] was 4.73 to 5.11; with Plasmodium berghei, 6.41 to 6.96; with Plasmodium falciparum [2] it was 4.73 to 5.11; with Plasmodium falciparum [3], 4.73 to 5.11.
Consider `COc1cc(NC(C)CCCNC(=O)NNC(=O)/C=C/c2ccc(C(F)(F)F)cc2)c2ncccc2c1` (centres undefined), for which the pEC50 (usually −log10 of the EC50, conventionally taken in molar units) in the test on Human coronavirus 229E was 4.82 to 5.10.
In the case of `COc1cc(NC(C)CCCNC(=O)NNC(=O)/C=C/c2ccc3c(c2)OCO3)c2ncccc2c1` (centres undefined), the pEC50 in the test on Human coronavirus 229E was 4.82 to 5.10.
The same measure, in the same setting: the same measure for `COc1cc(NC(C)CCCNC(=O)NNC(=O)/C=C/c2cc(C(F)(F)F)cc(C(F)(F)F)c2)c2ncccc2c1` (centres undefined): 4.82 to 5.10.
With `COc1cc(NC(C)CCCNC(=O)/C=C/C(=O)Nc2cccc(C(F)(F)F)c2)c2ncccc2c1` (centres undefined), the negative-log EC50 (pEC50) in the test on Coxsackievirus B4 is 5.51; in [4], 5.26 to 5.51; with Sindbis virus, 5.26 to 5.51; with Punta Toro virus, 5.26 to 5.51. The pIC50 in the test on Plasmodium falciparum [1] was 4.73 to 5.11; in the test on Plasmodium berghei it was 6.41 to 6.96; in the test on Plasmodium falciparum [2] it was 4.73 to 5.11; with Plasmodium falciparum [3], 4.73 to 5.11.
With `COc1cc(NC(C)CCCNC(=O)/C=C/C(=O)Nc2ccc(Cl)cc2)c2ncccc2c1` (centres undefined), the pIC50 with Plasmodium falciparum [1] is 4.73 to 5.11; with Plasmodium berghei it was 6.41 to 6.96; in the test with Plasmodium falciparum [2], 4.73 to 5.11; in the test with Plasmodium falciparum [3] it was 4.73 to 5.11.
Take `COc1cc(NC(C)CCCNC(=O)/C=C/C(=O)Nc2cccc(Cl)c2)c2ncccc2c1` (centres undefined): the pIC50 in the test with Plasmodium falciparum [1] is 4.73 to 5.11; with Plasmodium berghei, 6.41 to 6.96; in the test on Plasmodium falciparum [2], 4.73 to 5.11; in the test with Plasmodium falciparum [3], 4.73 to 5.11. In addition, the pEC50 (in test [4]; in the test with Sindbis virus; with Punta Toro virus) was 5.26 to 5.51 throughout.
In the test with Plasmodium berghei, `COc1cc(NC(C)CCCN)c2ncccc2c1` (centres undefined) [PRIMAQUINE] gave a pIC50 of 5.08.
As to `COc1cc(NC(C)CCCNC(=O)NNC(=O)/C(C)=C/c2ccccc2)c2ncccc2c1` (centres undefined), the pEC50 in the test on Human coronavirus 229E is 4.82 to 5.10.
In the case of `COc1cc(NC(C)CCCNC(=O)/C=C/C(=O)Nc2ccc(F)cc2)c2ncccc2c1` (centres undefined), the pIC50 in the test with Plasmodium falciparum [1] is 4.73 to 5.11; with Plasmodium berghei it was 6.41 to 6.96; in the test with Plasmodium falciparum [2], 4.73 to 5.11; in the test on Plasmodium falciparum [3] it was 4.73 to 5.11. The MBEC in the test with Staphylococcus aureus [5] and in the test on Staphylococcus aureus [6] was 6.3 µg/mL throughout.
Regarding `COc1cc(NC(C)CCCNC(=O)NC(CC(C)C)C(=O)NC(c2ccccc2)c2ccccc2)c2ncccc2c1` (centres undefined), in the test on Staphylococcus aureus [7], the MIC – broadly, the smallest concentration in the dilution series that meets the test's criterion for growth inhibition – worked out at 6.5 µg/mL (≈ 11.2 µM).
With `COc1cc(NC(C)CCCNC(=O)NC(C(=O)NC(c2ccccc2)c2ccccc2)c2ccc(Cl)cc2)c2ncccc2c1` (centres undefined), the MIC with Pseudomonas aeruginosa was 25 µg/mL (≈ 39.3 µM); in the test with Escherichia coli [8], 25 µg/mL (≈ 39.3 µM); against Staphylococcus aureus [7], 6.5 µg/mL (≈ 10.2 µM). Moreover, the MBEC with Escherichia coli [9] is 6.25 to 50 µg/mL.
Turning to `COc1cc(NC(C)CCCNC(=O)NNC(=O)/C=C/c2cccc(C(F)(F)F)c2)c2ncccc2c1` (centres undefined), the pEC50 in the test on Human coronavirus 229E is 4.82 to 5.10.
Turning to `COc1cc(NC(C)CCCNC(=O)/C=C/C(=O)Nc2cccc(F)c2)c2ncccc2c1` (centres undefined), the pIC50 in the test on Plasmodium falciparum [1] is 4.73 to 5.11; in the test on Plasmodium berghei it was 6.41 to 6.96; in the test on Plasmodium falciparum [2] it was 4.73 to 5.11; with Plasmodium falciparum [3], 4.73 to 5.11. The MBEC in the test on Staphylococcus aureus [5] and with Staphylococcus aureus [6] was 6.3 µg/mL in each case.
Take `COc1cc(NC(C)CCCNC(=O)NC(C(=O)NC(c2ccccc2)c2ccc(Cl)cc2)c2ccccc2)c2ncccc2c1` (centres undefined): the minimum inhibitory concentration (MIC) against Pseudomonas aeruginosa and against Escherichia coli [8] was 25 µg/mL (≈ 39.3 µM) each time. The MBEC in the test on Escherichia coli [9] was 6.25 to 50 µg/mL.

The values are drawn from ChEMBL document CHEMBL4373728, “Primaquine derivatives: Modifications of the terminal amino group” (Eur J Med Chem, 2019).
